Test results published in ChEMBL document CHEMBL4330166, “Euphorhelipanes A and B, Triglyceride-Lowering Euphorbia Diterpenoids with a Bicyclo[4.3.0]nonane Core from Euphorbia helioscopia” (J Nat Prod, 2019).
The source made the active and inactive calls. The calls are words filed in the database; no cut-off is given here.

Assays:
[1] = system: Huh-7; assay: Inhibition of oleic acid-induced triglyceride accumulation in human HuH7 cells after 24 hrs; assay type: functional, cell-based
[2] = system: Huh-7; assay: Cytotoxicity against human HuH7 cells after 24 hrs by LDH release assay; assay type: cell-based; conditions: huh-7, 24 h
[3] = system: Huh-7; assay: Inhibition of oleic acid-induced triglyceride accumulation in human HuH7 cells up to 50 uM after 24 hrs by Oil Red O staining based assay; assay type: functional, cell-based

Question: How did the inhibition [1] turn out when `CC(=O)C(C)(C)/C=C/[C@@H](C)[C@@]1(O)C(=O)[C@H]2[C@@H](C=C[C@@H]2C)[C@H](C)[C@@H]1O` was run?
Answer: Dose-dependent effect

Question: What about the Activity [2] of the same molecule?
Answer: Non-Toxic

Question: What about the inhibition [3] of the same molecule?
Answer: Active

Question: How did the inhibition [1] turn out when `CC(=O)C(C)(C)/C=C/[C@H](C)[C@@]1(O)C(=O)[C@H]2[C@@H](C=C[C@@H]2C)[C@H](C)[C@@H]1O` was run?
Answer: Dose-dependent effect

Question: What about the Activity [2] of the same molecule?
Answer: Non-Toxic

Question: What about the inhibition [3] of the same molecule?
Answer: Active
